Test results taken from PubChem BioAssay (NCI).
Several values for one entry are separate records, joined by “and”; a condition that tells them apart may be missing. Identical values can stand only once.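 Method: 48-hour compound exposure of cells in 96-well plates, five concentrations, linear interpolation of endpoints. GI50 marks 50% less growth. Definition used: TGI = concentration required for complete inhibition of growth.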

Key:
Assay in all cases: growth of human tumour cells (NCI), 48 h
[1] = tested on: MDA-MB-231 breast
[2] = tested on: PC-3 prostate
[3] = tested on: M14 melanoma
[4] = tested on: U251 CNS
[5] = tested on: HT29 colon
[6] = tested on: A549 NSCLC
[7] = tested on: LOX IMVI melanoma
[8] = tested on: SF-268 CNS
[9] = tested on: HCT-15 colon

With `O=C1C(Cl)=C(NCCN2CCOCC2)C(=O)c2ncccc21` the TGI [1] was 5.02 µM and 3.77 µM, the GI50 [2] was 4.26 µM and the TGI [2] was 18.7 µM. For the same compound, the TGI [3] was 3.17 µM and 3.25 µM, the GI50 [4] was 1.87 µM and the TGI [4] was 3.12 µM and 3.3 µM. The TGI [5] was 6.74 µM, the TGI [6] was 4.18 µM and 3.87 µM and the GI50 [7] was 0.905 µM. For the same compound, the TGI [7] was 3.44 µM and 2.55 µM, the GI50 [8] was 3.8 µM and the TGI [8] was 4.27 µM and 15.5 µM. The GI50 [9] was 1.68 µM and the TGI [9] was 4.17 µM and 3.62 µM.
Compound `CC/C=C\C[C@@H](O)C/C=C1/C(=O)C=C[C@H]1C/C=C\CCCC(=O)OC` has a GI50 [1] of 6.06 µM, a TGI [1] of 20.5 µM and a GI50 [2] of 3.2 µM. The TGI [2] was 10.8 µM, the GI50 [3] was 2.39 µM and the TGI [3] was 8.38 µM. It also gave a GI50 [4] of 3.18 µM, a TGI [4] of 10.5 µM and a GI50 [5] of 2.36 µM. It also gave a TGI [5] of 5.74 µM, a GI50 [6] of 3.75 µM and a TGI [6] of 10.7 µM. The GI50 [7] was 0.329 µM, the TGI [7] was 1.51 µM and the GI50 [8] was 3.92 µM. For the same compound, the TGI [8] was 15.3 µM, the GI50 [9] was 2.49 µM and the TGI [9] was 7.47 µM.
For `Cc1ccc(C(=O)NC(C)C)cc1-c1ccc(C(=O)NCC2CC2)cc1`, the GI50 [1] was > 25 µM, the TGI [1] was > 25 µM and the GI50 [2] was > 25 µM. For the same compound, the TGI [2] was > 25 µM, the GI50 [3] was > 25 µM and the TGI [3] was > 25 µM. For the same compound, the GI50 [4] was > 25 µM, the TGI [4] was > 25 µM and the GI50 [5] was > 25 µM. The TGI [5] was > 25 µM, the GI50 [6] was > 25 µM and the TGI [6] was > 25 µM. The GI50 [7] was > 25 µM, the TGI [7] was > 25 µM and the GI50 [8] was > 25 µM. The TGI [8] was > 25 µM, the GI50 [9] was > 25 µM and the TGI [9] was > 25 µM.
In the case of `O=C1Nc2ccccc2C1(c1ccc(O)cc1)c1ccc(O)cc1`, the GI50 [1] is reported as 20.3 µM, the TGI [1] is reported as 48.7 µM and the GI50 [2] is reported as 2.71 µM. It also gave a TGI [2] of 75 µM, a GI50 [3] of 20.1 µM and a TGI [3] of 49.3 µM. For the same compound, the GI50 [4] was 24.2 µM, the TGI [4] was 63.5 µM and the GI50 [5] was 29.3 µM. The TGI [5] was > 90 µM, the GI50 [6] was 27.9 µM and the TGI [6] was > 96.7 µM. It also gave a GI50 [7] of 5.97 µM, a TGI [7] of 35.9 µM and a GI50 [8] of 24.4 µM. For the same compound, the TGI [8] was 77.9 µM, the GI50 [9] was 19.2 µM and the TGI [9] was > 100 µM.
In the case of `COc1cc(C(=O)CBr)c(OC)cc1C`, the TGI [1] is reported as > 100 µM, the TGI [2] is reported as > 100 µM and the TGI [3] is reported as > 100 µM. For the same compound, the TGI [4] was > 100 µM, the TGI [5] was > 100 µM and the TGI [6] was > 100 µM. For the same compound, the TGI [7] was > 100 µM, the TGI [8] was > 100 µM and the TGI [9] was > 100 µM.
With `O=C1c2cccc([N+](=O)[O-])c2C(=O)N1c1ncn[nH]1` the TGI [1] was > 100 µM, the TGI [2] was > 100 µM and the TGI [3] was > 100 µM. For the same compound, the TGI [4] was > 100 µM, the TGI [5] was > 100 µM and the TGI [6] was > 100 µM. The TGI [7] was > 100 µM, the TGI [8] was > 100 µM and the TGI [9] was > 100 µM.
`O=C(O)/C=C(\c1nc2ccc([N+](=O)[O-])cc2[nH]1)c1cc(Cl)ccc1O` was tested, and the GI50 [1] was 2.11 µM, the TGI [1] was 9.25 µM and the GI50 [2] was 2.25 µM. For the same compound, the TGI [2] was > 100 µM, the GI50 [3] was 2.78 µM and the TGI [3] was 12 µM. The GI50 [4] was 3.21 µM, the TGI [4] was 19.2 µM and the GI50 [5] was 3.51 µM. For the same compound, the TGI [5] was 14.4 µM, the GI50 [6] was 3.07 µM and the TGI [6] was 14.1 µM. It also gave a GI50 [7] of 2.41 µM, a TGI [7] of 11.1 µM and a GI50 [8] of 3.62 µM. It also gave a TGI [8] of 28.3 µM, a GI50 [9] of 2.9 µM and a TGI [9] of 20.3 µM.
In the case of `CC1CN1C(=O)NCCCCCCNC(=O)N1CC1C` (configuration not stated), the TGI [1] is reported as > 100 µM, the TGI [2] is reported as > 100 µM and the TGI [3] is reported as > 100 µM. For the same compound, the TGI [4] was > 100 µM, the TGI [5] was > 100 µM and the TGI [6] was > 100 µM. For the same compound, the TGI [7] was > 60.3 µM, the TGI [8] was > 100 µM and the TGI [9] was > 100 µM.
For `CS(=O)(=O)CCNCc1ccc(-c2ccc3ncnc(Nc4ccc(OCc5ccccc5)cc4)c3c2)o1`, the GI50 [1] was 4.82 µM, the TGI [1] was 11.1 µM and the GI50 [2] was 7.23 µM. For the same compound, the TGI [2] was > 23.7 µM, the GI50 [3] was 4.89 µM and the TGI [3] was 9.74 µM. For the same compound, the GI50 [4] was 6.2 µM, the TGI [4] was > 25 µM and the GI50 [5] was 3.33 µM. The TGI [5] was 13.5 µM, the GI50 [6] was 5.19 µM and the TGI [6] was > 25 µM. It also gave a GI50 [7] of 4.05 µM, a TGI [7] of 8.75 µM and a GI50 [8] of 9.14 µM. For the same compound, the TGI [8] was > 25 µM, the GI50 [9] was 4.13 µM and the TGI [9] was 13.4 µM.
For `Nc1nc2c(nnn2C2CC(O)C(CO)O2)c(=O)[nH]1` (configuration not stated), the GI50 [1] was 5.41 µM, the TGI [1] was > 100 µM and the GI50 [2] was 2.55 µM. For the same compound, the TGI [2] was > 100 µM, the GI50 [3] was 4.47 µM and the TGI [3] was > 92.1 µM. The GI50 [4] was 9.66 µM, the TGI [4] was > 100 µM and the GI50 [5] was 13.5 µM. The TGI [5] was > 100 µM, the GI50 [6] was 20.3 µM and the TGI [6] was > 100 µM. For the same compound, the GI50 [7] was 0.92 µM, the TGI [7] was > 83.2 µM and the GI50 [8] was 7.99 µM. For the same compound, the TGI [8] was > 100 µM, the GI50 [9] was 3.65 µM and the TGI [9] was > 100 µM.
In the case of `COc1ccc(-c2nc(-c3nc4ccc(Cl)cc4[nH]3)c3ccccn23)cc1`, the GI50 [1] is reported as 2.77 µM, the TGI [1] is reported as 7.75 µM and the GI50 [2] is reported as 2.13 µM. The TGI [2] was 5.63 µM, the GI50 [3] was 4.24 µM and the TGI [3] was 18.4 µM. For the same compound, the GI50 [4] was 3.16 µM, the TGI [4] was 11.3 µM and the GI50 [5] was 3.66 µM. The TGI [5] was 14.2 µM, the GI50 [6] was 1.82 µM and the TGI [6] was 4.27 µM. The GI50 [7] was 2.85 µM, the TGI [7] was 6.66 µM and the GI50 [8] was 2.93 µM. It also gave a TGI [8] of 9.07 µM, a GI50 [9] of 3.89 µM and a TGI [9] of 64.3 µM.
For `NC(=O)NS(=O)(=O)c1ccc(N2N=C(C(F)(F)F)CC2c2cc(C(F)(F)F)cc(C(F)(F)F)c2)cc1` (configuration not stated), the GI50 [1] was 10.2 µM, the TGI [1] was 22.7 µM and the GI50 [2] was 2.35 µM. For the same compound, the TGI [2] was 12.2 µM, the GI50 [3] was 4.96 µM and the TGI [3] was 21.1 µM. For the same compound, the GI50 [4] was 3.94 µM, the TGI [4] was 15.2 µM and the GI50 [5] was 3.1 µM. It also gave a TGI [5] of 13 µM, a GI50 [6] of 3.36 µM and a TGI [6] of 13.5 µM. The GI50 [7] was 5.76 µM, the TGI [7] was 19.1 µM and the GI50 [8] was 2.96 µM. The TGI [8] was 12.3 µM, the GI50 [9] was 2.99 µM and the TGI [9] was 13.6 µM.
`O=C(O)C(=Cc1ccc(-c2ccccc2)cc1)C(=O)O` gave a TGI [1] of 38.5 µM, a TGI [2] of 27.6 µM and a TGI [3] of 29.5 µM. For the same compound, the TGI [4] was 25.9 µM, the TGI [5] was > 49.3 µM and the TGI [6] was > 58.8 µM. For the same compound, the TGI [7] was 25.9 µM, the TGI [8] was > 59.3 µM and the TGI [9] was > 61 µM.
In the case of `O=S(=O)(NC1=NCCN1C(=S)SN1CCn2c1nsc2=S)c1cccc(Cl)c1`, the GI50 [1] is reported as 15.3 µM, the TGI [1] is reported as 50.7 µM and the GI50 [2] is reported as 15.4 µM. The TGI [2] was 47.2 µM, the GI50 [3] was 15.8 µM and the TGI [3] was 33.2 µM. For the same compound, the GI50 [4] was 13.6 µM, the TGI [4] was 27.8 µM and the GI50 [5] was 20.5 µM. The TGI [5] was 74 µM, the GI50 [6] was 30.3 µM and the TGI [6] was 91.2 µM. It also gave a GI50 [7] of 10.7 µM, a TGI [7] of 22.9 µM and a GI50 [8] of 20.2 µM. The TGI [8] was 46.7 µM, the GI50 [9] was 11.9 µM and the TGI [9] was 26.7 µM.
